According to publication PMC5218480 (PLoS ONE, 2017):

Tested on: MV-4-11 cells
Assay: Gene expression microarray analysis (Affymetrix PrimeView) and GSEA
Assay type: cell-based, human
Set-up: RFU PODN (11730768_x_at) / Fold change /veh PODN (11730768_x_at) / RFU LINC00158 (11744669_a_at) / Fold change /veh LINC00158 (11744669_a_at) / RFU DUSP10 (11751237_a_at) / Fold change /veh DUSP10 (11751237_a_at) / RFU ID3 (11757404_x_at) / Fold change /veh ID3 (11757404_x_at) / RFU PLEKHG5 (11737974_s_at) / Fold change /veh PLEKHG5 (11737974_s_at) / RFU LRRC4B (11730491_at) / Fold change /veh LRRC4B (11730491_at) / RFU GIMAP4 (11747438_a_at) / Fold change /veh GIMAP4 (11747438_a_at) / RFU KRT8 (11758183_x_at) / Fold change /veh KRT8 (11758183_x_at) / RFU CNN1 (11734310_a_at) / Fold change /veh CNN1 (11734310_a_at) / RFU VPS37D (11726825_at) / Fold change /veh VPS37D (11726825_at) / RFU C10orf10 (11716522_x_at) / Fold change /veh C10orf10 (11716522_x_at) / RFU KIR2DL2 /// KIR2DL4 /// KIR2DL5A /// KIR2DL5B /// KIR2DS1 /// KIR2DS2 /// KIR2DS3 /// KIR2DS4 /// KIR3DL3 /// KIR3DL3 /// KIR3DS1 (11738374_at) / Fold change /veh KIR2DL2 /// KIR2DL4 /// KIR2DL5A /// KIR2DL5B /// KIR2DS1 /// KIR2DS2 /// KIR2DS3 /// KIR2DS4 /// KIR3DL3 /// KIR3DL3 /// KIR3DS1 (11738374_at) / RFU C1QL1 (11718748_at) / Fold change /veh C1QL1 (11718748_at) / RFU TMPRSS4 (11747572_a_at) / Fold change /veh TMPRSS4 (11747572_a_at) / RFU HAMP (11756126_x_at) / Fold change /veh HAMP (11756126_x_at) / RFU RNFT2 (11725882_a_at) / Fold change /veh RNFT2 (11725882_a_at) / RFU NR4A2 (11747474_a_at) / Fold change /veh NR4A2 (11747474_a_at) / RFU ABCC12 (11746883_a_at) / Fold change /veh ABCC12 (11746883_a_at) / RFU TMEM136 (11760407_x_at) / Fold change /veh TMEM136 (11760407_x_at) / RFU CLDN22 /// WWC2 (11732394_at) / Fold change /veh CLDN22 /// WWC2 (11732394_at) / RFU HLA-DPB1 (11760878_x_at) / Fold change /veh HLA-DPB1 (11760878_x_at) / RFU SPINT1 (11716480_a_at) / Fold change /veh SPINT1 (11716480_a_at) / RFU GAP43 (11754022_s_at) / Fold change /veh GAP43 (11754022_s_at) / RFU A4GNT (11735810_at) / Fold change /veh A4GNT (11735810_at) / RFU PRB3 (11715151_x_at) / Fold change /veh PRB3 (11715151_x_at) / RFU TUBB4B (11761932_at) / Fold change /veh TUBB4B (11761932_at) / RFU CAPN14 (11732068_a_at) / Fold change /veh CAPN14 (11732068_a_at) / RFU TMCC2 (11721928_a_at) / Fold change /veh TMCC2 (11721928_a_at) / RFU IRGQ (11745062_a_at) / Fold change /veh IRGQ (11745062_a_at) / RFU FAM174B (11720279_a_at) / Fold change /veh FAM174B (11720279_a_at) / RFU TMPRSS4 (11748680_a_at) / Fold change /veh TMPRSS4 (11748680_a_at) / RFU FAM212B (11763350_a_at) / Fold change /veh FAM212B (11763350_a_at) / RFU PLEKHG5 (11743358_a_at) / Fold change /veh PLEKHG5 (11743358_a_at) / RFU ZSCAN30 (11745921_a_at) / Fold change /veh ZSCAN30 (11745921_a_at) / RFU CMKLR1 (11741424_a_at) / Fold change /veh CMKLR1 (11741424_a_at) / RFU LOC101060620 /// MAPK8IP1 (11723275_at) / Fold change /veh LOC101060620 /// MAPK8IP1 (11723275_at) / RFU SPTSSB (11747773_x_at) / Fold change /veh SPTSSB (11747773_x_at) / RFU PRSS12 (11739890_at) / Fold change /veh PRSS12 (11739890_at) / RFU BIN1 (11741810_x_at) / Fold change /veh BIN1 (11741810_x_at) / RFU WNT11 (11732464_a_at) / Fold change /veh WNT11 (11732464_a_at) / RFU C10orf10 (11716521_a_at) / Fold change /veh C10orf10 (11716521_a_at) / RFU C5orf56 (11738089_at) / Fold change /veh C5orf56 (11738089_at) / RFU CYB561 (11721691_x_at) / Fold change /veh CYB561 (11721691_x_at) / RFU ANKRD19P (11752326_a_at) / Fold change /veh ANKRD19P (11752326_a_at) / RFU OR2T12 /// OR2T33 /// OR2T8 (11738714_s_at) / Fold change /veh OR2T12 /// OR2T33 /// OR2T8 (11738714_s_at) / RFU VCAN (11748164_a_at) / Fold change /veh VCAN (11748164_a_at) / RFU JSRP1 (11732532_at) / Fold change /veh JSRP1 (11732532_at) / RFU KRTAP10-11 (11738290_x_at) / Fold change /veh KRTAP10-11 (11738290_x_at) / RFU MYO3A (11730013_a_at) / Fold change /veh MYO3A (11730013_a_at) / RFU EBF3 (11725865_a_at) / Fold change /veh EBF3 (11725865_a_at) / RFU CAMK2N1 (11719241_x_at) / Fold change /veh CAMK2N1 (11719241_x_at) / RFU C5orf56 (11738088_a_at) / Fold change /veh C5orf56 (11738088_a_at) / RFU OLFML3 (11715873_a_at) / Fold change /veh OLFML3 (11715873_a_at) / RFU LOC100653217 /// NTM (11731650_a_at) / Fold change /veh LOC100653217 /// NTM (11731650_a_at) / RFU MAPK11 (11762145_a_at) / Fold change /veh MAPK11 (11762145_a_at) / RFU FIZ1 (11724087_x_at) / Fold change /veh FIZ1 (11724087_x_at) / RFU OASL (11726364_x_at) / Fold change /veh OASL (11726364_x_at) / RFU SOX15 (11748057_x_at) / Fold change /veh SOX15 (11748057_x_at) / RFU CD79A (11719716_a_at) / Fold change /veh CD79A (11719716_a_at) / RFU HIST1H1D (11736915_at) / Fold change /veh HIST1H1D (11736915_at) / RFU CASKIN2 (11723855_a_at) / Fold change /veh CASKIN2 (11723855_a_at) / RFU LOC730098 (11760151_x_at) / Fold change /veh LOC730098 (11760151_x_at) / RFU OR4N2 (11742367_at) / Fold change /veh OR4N2 (11742367_at) / RFU PRRT2 (11749266_a_at) / Fold change /veh PRRT2 (11749266_a_at) / RFU SNX32 (11753110_a_at) / Fold change /veh SNX32 (11753110_a_at) / RFU CDHR5 (11726645_a_at) / Fold change /veh CDHR5 (11726645_a_at) / RFU RCAN1 (11760418_a_at) / Fold change /veh RCAN1 (11760418_a_at) / RFU FAM167A (11723789_a_at) / Fold change /veh FAM167A (11723789_a_at) / RFU FAM26E (11764081_at) / Fold change /veh FAM26E (11764081_at) / RFU ISYNA1 (11749810_s_at) / Fold change /veh ISYNA1 (11749810_s_at) / RFU ACY1 (11761880_at) / Fold change /veh ACY1 (11761880_at) / RFU 11764098_at / Fold change /veh 11764098_at / RFU SAMD14 (11745864_x_at) / Fold change /veh SAMD14 (11745864_x_at) / RFU NPB (11741838_a_at) / Fold change /veh NPB (11741838_a_at) / RFU TMPRSS6 (11731388_a_at) / Fold change /veh TMPRSS6 (11731388_a_at) / RFU KRTAP10-2 (11738614_at) / Fold change /veh KRTAP10-2 (11738614_at) / RFU ARHGAP8 /// PRR5-ARHGAP8 (11727945_x_at) / Fold change /veh ARHGAP8 /// PRR5-ARHGAP8 (11727945_x_at) / RFU KRTAP5-7 /// NADSYN1 (11734609_at) / Fold change /veh KRTAP5-7 /// NADSYN1 (11734609_at) / RFU RASL12 (11751679_a_at) / Fold change /veh RASL12 (11751679_a_at) / RFU CDKN2B (11736163_a_at) / Fold change /veh CDKN2B (11736163_a_at) / RFU PRF1 (11729649_at) / Fold change /veh PRF1 (11729649_at) / RFU, ZNF638 /// ZNF638-IT1 / Fold change vs veh, ZNF638 /// ZNF638-IT1 / RFU, PANK3 / Fold change vs veh, PANK3 / RFU, SH3YL1 / Fold change vs veh, SH3YL1 / RFU, ZEB2 / Fold change vs veh, ZEB2 / RFU, NRIP1 / Fold change vs veh, NRIP1 / RFU, PTTG1IP / Fold change vs veh, PTTG1IP / RFU, CAPN2 / Fold change vs veh, CAPN2 / RFU, MED14 / Fold change vs veh, MED14 / RFU, SNORA58 / Fold change vs veh, SNORA58 / RFU, C1orf63 / Fold change vs veh, C1orf63 / RFU, LRRFIP1 / Fold change vs veh, LRRFIP1 / RFU, NDUFAF7 / Fold change vs veh, NDUFAF7 / RFU, SLC12A2 / Fold change vs veh, SLC12A2 / RFU, IBTK / Fold change vs veh, IBTK / RFU, ESF1 / Fold change vs veh, ESF1 / Fold change vs veh, TMEM50B / RFU, TAOK1 / Fold change vs veh, TAOK1 / RFU, ACBD3 / Fold change vs veh, ACBD3 / RFU, TMA16 / Fold change vs veh, TMA16 / RFU, RWDD3 / Fold change vs veh, RWDD3 / RFU, BCAT1 / Fold change vs veh, BCAT1 / RFU, EDEM3 / Fold change vs veh, EDEM3 / RFU, TMEM33 / Fold change vs veh, TMEM33 / RFU, WDR75 / Fold change vs veh, WDR75 / RFU, AHCTF1 / Fold change vs veh, AHCTF1 / RFU, TFRC / Fold change vs veh, TFRC / RFU, ZDHHC17 / Fold change vs veh, ZDHHC17 / RFU, NOM1 / Fold change vs veh, NOM1 / RFU, ARL8B / Fold change vs veh, ARL8B / RFU, ZBTB11 / Fold change vs veh, ZBTB11 / RFU, TAMM41 / Fold change vs veh, TAMM41 / RFU, KIAA1704 /// LOC100996395 / Fold change vs veh, KIAA1704 /// LOC100996395 / RFU, ING1 / Fold change vs veh, ING1 / RFU, TRMT61B / Fold change vs veh, TRMT61B / RFU, FUBP3 / Fold change vs veh, FUBP3 / RFU, TP53 / Fold change vs veh, TP53 / RFU, TNKS2 / Fold change vs veh, TNKS2 / RFU, ZFP14 / Fold change vs veh, ZFP14 / RFU, ACTR2 / Fold change vs veh, ACTR2 / RFU, PPP3R1 / Fold change vs veh, PPP3R1 / RFU, PIK3R1 / Fold change vs veh, PIK3R1 / RFU, HNRNPA1 / Fold change vs veh, HNRNPA1 / RFU, RNF170 / Fold change vs veh, RNF170 / RFU, ZNF28 / Fold change vs veh, ZNF28 / RFU, RNGTT / Fold change vs veh, RNGTT / RFU, OGT / Fold change vs veh, OGT / RFU, BRD1 / Fold change vs veh, BRD1 / RFU, MARS / Fold change vs veh, MARS / RFU, ZNF655 / Fold change vs veh, ZNF655 / RFU, FAHD1 / Fold change vs veh, FAHD1 / RFU, BDP1 / Fold change vs veh, BDP1 / RFU, LRRCC1 / Fold change vs veh, LRRCC1 / RFU, ARID1A / Fold change vs veh, ARID1A / RFU, ZNF146 / Fold change vs veh, ZNF146 / RFU, ZNF330 / Fold change vs veh, ZNF330 / RFU, GPN3 / Fold change vs veh, GPN3 / RFU, C9orf123 / Fold change vs veh, C9orf123 / RFU, N4BP2L2 / Fold change vs veh, N4BP2L2 / RFU, ARFIP1 / Fold change vs veh, ARFIP1 / RFU, FAM179B / Fold change vs veh, FAM179B / RFU, BCL10 / Fold change vs veh, BCL10 / RFU, UHRF1BP1L / Fold change vs veh, UHRF1BP1L / RFU, BET1 / Fold change vs veh, BET1 / RFU, CNOT2 / Fold change vs veh, CNOT2 / RFU, ZNF268 / Fold change vs veh, ZNF268 / Fold change vs veh, ZNF507 / RFU, DGCR2 / Fold change vs veh, DGCR2 / RFU, WDSUB1 / Fold change vs veh, WDSUB1 / Fold change vs veh, HSP90B1 /// MIR3652 / RFU, ADSS / Fold change vs veh, ADSS / RFU, GK / Fold change vs veh, GK / RFU, ZNF148 / Fold change vs veh, ZNF148 / RFU, TAF9 / Fold change vs veh, TAF9 / RFU, SLC1A5 / Fold change vs veh, SLC1A5 / RFU, SLMO2 / Fold change vs veh, SLMO2 / RFU, ABCC4 / Fold change vs veh, ABCC4 / RFU, LOC101060439 /// RAP1B / Fold change vs veh, LOC101060439 /// RAP1B / RFU, RFX7 / Fold change vs veh, RFX7 / RFU, GTPBP10 / Fold change vs veh, GTPBP10 / RFU, CNEP1R1 / Fold change vs veh, CNEP1R1 / RFU, BIVM-ERCC5 /// ERCC5 / Fold change vs veh, BIVM-ERCC5 /// ERCC5 / RFU, ILF3 / Fold change vs veh, ILF3 / RFU 11762660_at / Fold change /veh 11762660_at / RFU VCAN (11757783_s_at) / Fold change /veh VCAN (11757783_s_at) / RFU DDX43 (11728927_at) / Fold change /veh DDX43 (11728927_at) / RFU KRT8 (11758188_x_at) / Fold change /veh KRT8 (11758188_x_at) / RFU NKD1 (11759106_at) / Fold change /veh NKD1 (11759106_at) / RFU SRD5A1 (11742802_a_at) / Fold change /veh SRD5A1 (11742802_a_at) / RFU TPSAB1 /// TPSB2 (11721975_s_at) / Fold change /veh TPSAB1 /// TPSB2 (11721975_s_at) / RFU GSTM3 (11746129_a_at) / Fold change /veh GSTM3 (11746129_a_at) / RFU IL23R (11737362_x_at) / Fold change /veh IL23R (11737362_x_at) / RFU TMEM51 (11727254_a_at) / Fold change /veh TMEM51 (11727254_a_at) / RFU PIWIL2 (11732686_x_at) / Fold change /veh PIWIL2 (11732686_x_at) / RFU ORM1 (11744905_x_at) / Fold change /veh ORM1 (11744905_x_at) / RFU CCDC152 (11743942_at) / Fold change /veh CCDC152 (11743942_at) / RFU ECM1 (11717891_a_at) / Fold change /veh ECM1 (11717891_a_at) / RFU IL23R (11748794_a_at) / Fold change /veh IL23R (11748794_a_at) / RFU TNFAIP8L3 (11732012_x_at) / Fold change /veh TNFAIP8L3 (11732012_x_at) / RFU MBOAT4 (11741988_at) / Fold change /veh MBOAT4 (11741988_at) / RFU 11764193_at / Fold change /veh 11764193_at / RFU TMEM53 (11763286_at) / Fold change /veh TMEM53 (11763286_at) / RFU MAGEB2 (11727129_at) / Fold change /veh MAGEB2 (11727129_at) / RFU TMEM200A (11744735_a_at) / Fold change /veh TMEM200A (11744735_a_at) / RFU CCDC152 (11751479_a_at) / Fold change /veh CCDC152 (11751479_a_at) / RFU FAM211A (11726209_a_at) / Fold change /veh FAM211A (11726209_a_at) / RFU RGS16 (11746705_a_at) / Fold change /veh RGS16 (11746705_a_at) / RFU VCAN (11755009_s_at) / Fold change /veh VCAN (11755009_s_at) / RFU RHOB (11743442_s_at) / Fold change /veh RHOB (11743442_s_at) / RFU RGS16 (11720943_a_at) / Fold change /veh RGS16 (11720943_a_at) / RFU RGS16 (11720944_at) / Fold change /veh RGS16 (11720944_at) / RFU, VPS4B / Fold change vs veh, VPS4B / RFU, CREB1 / Fold change vs veh, CREB1 / RFU, DNAJC13 / Fold change vs veh, DNAJC13 / RFU, GNAQ / Fold change vs veh, GNAQ / RFU, CDK5R1 / Fold change vs veh, CDK5R1 / RFU, ZRANB3 / Fold change vs veh, ZRANB3 / RFU, CUL4A / Fold change vs veh, CUL4A / RFU, CCNY / Fold change vs veh, CCNY / RFU, UFL1 / Fold change vs veh, UFL1 / RFU, COG3 / Fold change vs veh, COG3 / RFU, DIAPH2 / Fold change vs veh, DIAPH2 / RFU, SKA2 / Fold change vs veh, SKA2 / RFU, AFF3 / Fold change vs veh, AFF3 / RFU, LMF1 / Fold change vs veh, LMF1 / RFU, IPO11 / Fold change vs veh, IPO11 / RFU, DFFB / Fold change vs veh, DFFB / RFU, FOXP1 / Fold change vs veh, FOXP1 / RFU, CARD8 / Fold change vs veh, CARD8 / RFU, STRN3 / Fold change vs veh, STRN3 / RFU, ADK / Fold change vs veh, ADK / RFU, RASSF2 / Fold change vs veh, RASSF2 / RFU, WIPF1 / Fold change vs veh, WIPF1 / RFU, LARP1B / Fold change vs veh, LARP1B / RFU, RASA1 / Fold change vs veh, RASA1 / RFU, RB1 / Fold change vs veh, RB1 / RFU, PPFIA1 / Fold change vs veh, PPFIA1 / RFU, MAT2A / Fold change vs veh, MAT2A / RFU, CCT5 / Fold change vs veh, CCT5 / RFU, WDR92 / Fold change vs veh, WDR92 / RFU, CUX1 / Fold change vs veh, CUX1 / RFU, TTC7A / Fold change vs veh, TTC7A / RFU, TMEM135 / Fold change vs veh, TMEM135 / RFU, DEPTOR / Fold change vs veh, DEPTOR / RFU, CPM / Fold change vs veh, CPM / RFU, DNAJB6 / Fold change vs veh, DNAJB6 / RFU, CACNA2D3 / Fold change vs veh, CACNA2D3 / RFU, DTX4 / Fold change vs veh, DTX4 / RFU, TFCP2 / Fold change vs veh, TFCP2 / RFU, GMCL1 /// GMCL1P1 / Fold change vs veh, GMCL1 /// GMCL1P1 / RFU, AEBP2 / Fold change vs veh, AEBP2 / RFU, SNHG1 /// SNORD22 /// SNORD25 /// SNORD26 /// SNORD27 /// SNORD28 /// SNORD29 /// SNORD31 / Fold change vs veh, SNHG1 /// SNORD22 /// SNORD25 /// SNORD26 /// SNORD27 /// SNORD28 /// SNORD29 /// SNORD31 / Fold change (Aza/veh), C12orf56 (ProbeSet 11735607_a_at) / Fold change (ACY-1035/veh), C12orf56 (ProbeSet 11735607_a_at) / Fold change (Aza/veh), FGFR1OP (ProbeSet 11751329_s_at) / Fold change (ACY-1035/veh), FGFR1OP (ProbeSet 11751329_s_at) / Fold change (Aza/veh), VPS36 (ProbeSet 11739960_a_at) / Fold change (ACY-1035/veh), VPS36 (ProbeSet 11739960_a_at) / RFU SYPL1 (11715823_x_at) / Fold change /veh SYPL1 (11715823_x_at) / RFU IGFBP7 (11715501_s_at) / Fold change /veh IGFBP7 (11715501_s_at) / RFU REEP3 (11722064_at) / Fold change /veh REEP3 (11722064_at) / RFU IGLL1 (11728026_x_at) / Fold change /veh IGLL1 (11728026_x_at): dose or concentration left out as unconfirmed
Conditions: MV-4-11 cells, 48 hours

Nc1ccc(-c2cccs2)cc1NC(=O)c1ccc2c(c1)cc(C1CC1)n2CCN1CCOCC1 [ACY-1035]
Fold change /veh KRT8 (11758183_x_at): 1.06
